Experimental data as given in patent US20070197643A1, “USE OF (Z)-2-CYANO-3-HYDROXY-BUT-2-ENOIC ACID-(4'-TRIFLUOROMETHYLPHENYL)-AMIDE FOR TREATING INFLAMMATORY BOWEL DISEASE” (AVENTIS PHARMACEUTICALS INC., priority 2004, published 2007).

Tests used:
[1] = test system: Crohn's disease; conditions: small number of patients with azathioprine intolerance; cited from earlier work
[2] = biological target: dihydrooate dehydrogenase (Homo sapiens, UniProt Q02127); conditions: enzyme essential for the synthesis of pyrimidines; cited from earlier work
[3] = test system: immune cells and cell lines; conditions: wide variety of immune cells and cell lines; cited from earlier work
[4] = test system: inflammation; conditions: animal models of inflammation; cited from earlier work
[5] = amount entering the intestinal lumen after administration; type: in vivo; conditions: following administration of teriflunomide
[6] = test system: multiple sclerosis; conditions: in vivo; cited from earlier work

Chain of dihydrooate dehydrogenase (Q02127 whole entry): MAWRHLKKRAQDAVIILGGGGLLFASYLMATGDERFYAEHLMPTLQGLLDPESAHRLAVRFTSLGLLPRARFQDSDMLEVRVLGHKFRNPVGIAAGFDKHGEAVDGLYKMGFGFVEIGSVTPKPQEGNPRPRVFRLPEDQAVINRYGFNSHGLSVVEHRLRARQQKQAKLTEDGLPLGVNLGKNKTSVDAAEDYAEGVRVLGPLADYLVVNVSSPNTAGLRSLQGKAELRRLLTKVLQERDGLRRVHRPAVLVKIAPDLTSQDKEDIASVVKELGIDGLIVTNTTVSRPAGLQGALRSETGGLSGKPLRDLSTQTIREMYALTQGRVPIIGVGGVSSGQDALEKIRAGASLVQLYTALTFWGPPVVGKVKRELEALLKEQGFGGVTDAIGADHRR

| amount of teriflunomide entering the intestinal lumen [5] | SMILES | treatment of Crohn's disease [1] | inhibition of dihydrooate dehydrogenase [2] | antiproliferative effects [3] | anti-inflammatory activity [4] | efficacy in preclinical models of multiple sclerosis [6] |
| --- | --- | --- | --- | --- | --- | --- |
| – | Cc1oncc1C(=O)Nc1ccc(C(F)(F)F)cc1 [leflunomide, 5-methylisoxazole-4-carboxylic-(4-trifluoromethyl)-anilide] | successful use | – | – | – | – |
| high amounts | C/C(O)=C(\C#N)C(=O)Nc1ccc(C(F)(F)F)cc1 [Teriflunomide, (Z)-2-cyano-3-hydroxy-but-2-enoic acid-(4′-trifluoromethylphenyl)-amide] | – | inhibits | antiproliferative effects | anti-inflammatory activity | demonstrated efficacy |
